Results from ChEMBL document CHEMBL1697781, “Assessment of the health effects of chemicals in humans: II. Construction of an adverse effects database for QSAR modeling” (Curr Drug Discov Technol, 2004).

Columns and labels:
Settings in all cases: human; call rule not given here
Hepatotoxicity [1] = experiment: FDA HLAED, alkaline phosphatase increase
Hepatotoxicity [2] = experiment: FDA HLAED, liver enzyme composite activity
Hepatotoxicity [3] = experiment: FDA HLAED, serum glutamic pyruvic transaminase (SGPT) increase
Hepatotoxicity [4] = experiment: FDA HLAED, gamma-glutamyl transferase (GGT) increase
Hepatotoxicity [5] = experiment: FDA HLAED, lactate dehydrogenase (LDH) increase
Hepatotoxicity [6] = experiment: FDA HLAED, serum glutamic oxaloacetic transaminase (SGOT) increase
Throughout, for GGT Increase - Index Value: reference of the scale not given here.
Throughout, for LDH Increase - Index Value: reference of the scale not given here.

| Structure (SMILES) | Alkaline Phosphatase Increase - Activity Score (Hepatotoxicity [1]) | Alkaline Phosphatase Increase - Index Value (Hepatotoxicity [1]) | Alkaline Phosphatase Increase - Number of Reports (Hepatotoxicity [1]) | SGPT Increase - Activity Score (Hepatotoxicity [3]) | SGPT Increase - Index Value (Hepatotoxicity [3]) | SGPT Increase - Number of Reports (Hepatotoxicity [3]) | GGT Increase - Activity Score (Hepatotoxicity [4]) | GGT Increase - Index Value (Hepatotoxicity [4]) | GGT Increase - Number of Reports (Hepatotoxicity [4]) | LDH Increase - Activity Score (Hepatotoxicity [5]) | LDH Increase - Index Value (Hepatotoxicity [5]) | LDH Increase - Number of Reports (Hepatotoxicity [5]) | SGOT Increase - Activity Score (Hepatotoxicity [6]) | SGOT Increase - Index Value (Hepatotoxicity [6]) | SGOT Increase - Number of Reports (Hepatotoxicity [6]) | Composite Activity - Active (Hepatotoxicity [2]) | Composite Activity - Marginal (Hepatotoxicity [2]) | Composite Activity - Score (Hepatotoxicity [2]) | other results |
| --- | --- | --- | --- | --- | --- | --- | --- | --- | --- | --- | --- | --- | --- | --- | --- | --- | --- | --- | --- |
| NCCCC(O)(P(=O)(O)O)P(=O)(O)O [ALENDRONIC ACID] | Inactive | 2.5 | >= 4 | Inactive | 1.4 | >= 4 | Inactive | 0.8 | >= 4 | Inactive | 1.5 | >= 4 | Inactive | 1.4 | >= 4 | – | – | – | Composite Activity - Active (Hepatotoxicity [2]; Liver): 0; Composite Activity - Marginal (Hepatotoxicity [2]; Liver): 0; Composite Activity - Score (Hepatotoxicity [2]; Liver): Inactive |
| Cc1nnc2n1-c1ccc(Cl)cc1C(c1ccccc1)=NC2 [ALPRAZOLAM] | Inactive | 0.4 | >= 4 | Inactive | 0.9 | >= 4 | Inactive | 0 | < 4 | Inactive | 0.5 | >= 4 | Inactive | 0.7 | >= 4 | 0 | 0 | Inactive | – |
| CCCCC[C@H](O)/C=C/[C@H]1[C@H](O)CC(=O)[C@@H]1CCCCCCC(=O)O [ALPROSTADIL] | Inactive | 0 | < 4 | Inactive | 0 | < 4 | Inactive | 0 | < 4 | Inactive | 0 | < 4 | Inactive | 0 | < 4 | 0 | 0 | Inactive | – |
| CN(C)c1nc(N(C)C)nc(N(C)C)n1 [ALTRETAMINE] | Inactive | 18.3 | < 4 | Inactive | 0 | < 4 | Inactive | 0 | < 4 | Inactive | 0 | < 4 | Inactive | 0 | < 4 | 0 | 0 | Inactive | – |
| CC(=O)OCC(=O)[C@@]12OC3(CCCC3)O[C@@H]1C[C@H]1[C@@H]3CCC4=CC(=O)C=C[C@]4(C)[C@@]3(F)[C@@H](O)C[C@@]12C [AMCINONIDE] | Inactive | 0 | < 4 | Inactive | 0 | < 4 | Inactive | 0 | < 4 | Inactive | 0 | < 4 | Inactive | 0 | < 4 | 0 | 0 | Inactive | – |
| NCCCNCCSP(=O)(O)O [AMIFOSTINE] | Inactive | 0 | < 4 | Inactive | 0 | < 4 | Inactive | 0 | < 4 | Inactive | 41.5 | < 4 | Inactive | 0 | < 4 | – | – | – | Composite Activity - Active (Hepatotoxicity [2]; Liver): 0; Composite Activity - Marginal (Hepatotoxicity [2]; Liver): 0; Composite Activity - Score (Hepatotoxicity [2]; Liver): Inactive |
| CCC1(c2ccc(N)cc2)CCC(=O)NC1=O (stereo unspecified) [AMINOGLUTETHIMIDE] | Inactive | 0 | < 4 | Inactive | 0 | < 4 | Inactive | 0 | < 4 | Inactive | 0 | < 4 | Inactive | 0 | < 4 | 0 | 0 | Inactive | – |
| CCCCc1oc2ccccc2c1C(=O)c1cc(I)c(OCCN(CC)CC)c(I)c1 [AMIODARONE] | Inactive | 0 | < 4 | Inactive | 0 | < 4 | Inactive | 0 | < 4 | Inactive | 0 | < 4 | Inactive | 0 | < 4 | – | – | – | Composite Activity - Active (Hepatotoxicity [2]; Liver): 0; Composite Activity - Marginal (Hepatotoxicity [2]; Liver): 0; Composite Activity - Score (Hepatotoxicity [2]; Liver): Inactive |
| CC(C)c1ccc2oc3nc(N)c(C(=O)O)cc3c(=O)c2c1 [AMLEXANOX] | Inactive | 0 | < 4 | Inactive | 0 | < 4 | Inactive | 0 | < 4 | Inactive | 0 | < 4 | Inactive | 0 | < 4 | 0 | 0 | Inactive | – |
| CCOC(=O)C1=C(COCCN)NC(C)=C(C(=O)OC)C1c1ccccc1Cl (stereo unspecified) [AMLODIPINE] | Inactive | 1 | >= 4 | Inactive | 1.2 | >= 4 | Inactive | 0.8 | >= 4 | Inactive | 0.7 | >= 4 | Inactive | 1.3 | >= 4 | 0 | 0 | Inactive | – |
| Clc1ccc2c(c1)C(N1CCNCC1)=Nc1ccccc1O2 [AMOXAPINE] | Inactive | 0.7 | < 4 | Inactive | 0.7 | < 4 | Inactive | 0 | < 4 | Inactive | 0.7 | < 4 | Inactive | 1 | < 4 | 0 | 0 | Inactive | – |
| CC1(C)S[C@@H]2[C@H](NC(=O)[C@H](N)c3ccc(O)cc3)C(=O)N2[C@H]1C(=O)O [AMOXICILLIN] | Inactive | 0 | < 4 | Inactive | 0 | < 4 | Inactive | 0 | < 4 | Inactive | 0 | < 4 | Inactive | 0.1 | < 4 | 0 | 0 | Inactive | – |
